Test results taken from US20230146923A1, “COMPOSITIONS AND METHODS FOR INHIBITION AND TARGETING OF P97” (California Institute of Technology, priority 2021, published 2023).
Where a SMILES comes first, the peptide text is derived from it. The star is where a group is joined. Cbz = O=C(OCc1ccccc1)*

What was measured:
Format in all cases: cell-based
cyclin D1 = assay: Cyclin D1 level and degradation (co-treatment, CHX chase)
Experimental: FIGS. 12A-12C depicts Western blots detecting the effects of p97 inhibitors and MG132 on cell cycle proteins in HT29 and HCT116 cells. […] Then, 50 μM of CHX was added and cells were collected at 0 h, 0.5 h, and 1 h. FIG. 12C depicts half-life of cyclin D1 in HCT116 cells. HCT116 cells were pre-treated with 5 μM of CB-5083 or DMSO for 30 minutes before adding 50 μM of CHX, and cells were collected at 0, 10, 20, 30 min (n=3), * indicates p<0.05 according to unpaired t-test.
The concentration of MG132, CB-5083 and Baf A1 was 1 μM, 2 μM and 10 μM, respectively. […] FIGS. 13D-13E depict the half-life of Securin in HCT116 cells. HCT116 cells were treated with 1 μM of MG132, 2 μM of CB-5083, 1 μM of MG132 plus 2 μM of CB-5083 or DMSO. […] Cells were pretreated with […] for 1 h. […] For FIGS. 13B-13G, D, B, M, C and N represents DMSO, Baf A1, MG132, CB-5083 and NMS-873, respectively. Data are shown as mean±SD. Statistical analysis was performed using one-way ANOVA.
Cells were co-treated with CB-5083 and either the proteasome inhibitor MG132 or the autophagy inhibitor Bafilomycin A1 (Baf A1).

HCT116 cells [1] = assay: Cell cycle analysis (DNA content); details: HCT116, 24 h; 1 μM MG132, 2 μM CB-5083
Experimental: FIG. 7A depicts cell cycle analysis of HCT116 cells after 24 h of treatments with DMSO, 1 μM of MG132 (MG) or 2 μM of CB-5083. […] Data were from TMT labeling proteomics. M, C and N indicates MG132, CB-5083 and NMS-873 treatment, respectively. […] HCT116 cells were treated for 24 h with DMSO, 1 μM of MG132 (MG), 2 μM of CB-5083 (CB) or 4 μM of NMS-873 (NMS), n=3.

E2F1 [2] = assay: E2F1 reporter assay; details: HCT116 transfected with pGL2-AN plasmid, 8 h treatment, luminescence
Experimental: FIGS. 10A-10F depicts p97 inhibition impairs the transcriptional activity of E2F1 by downregulating the CCND1/CDK complex. […] Data was analyzed using the g:Profiler website. Shading indicates the gene is a potential target of transcription factor c-Myb or E2F1. Blank indicates it is not a target gene. FIG. 10B depicts known regulatory network of the CCND1/CDK/RB1/E2F1 pathway. […] HCT116 cells were treated with 1 μM MG132, 2 μM CB-5083 or 4 μM of NMS-874 for 6 h. FIGS. 10E and 10F show transcriptional activity of E2F1 measured using E2F1 reporter assay. HCT116 cells were transfected with pGL2-AN plasmid (Addgene: 20950) for 24 h. Then cells were plated in 384 well plate and incubated for 16 h. The luminescence were detected after 8 h treatment with MG132, CB-5083 or NMS-873. Data are shown as mean±SD, n=3. f, qRT-PCR analysis of ATF3, DHFR and CCND1 RNAs following treatment with MG132, CB-5083 or NMS-874. HCT116 cells were treated for 2, 6 and 24 h using the same concentration as proteomic and western blot assay (n=4).
To determine if the decreased expression of E2F1 target genes was caused by the downregulation of E2F1 levels due to ER stress, qPCR and western blot were used to evaluate E2F1 levels. […] The transcriptional activity of E2F1 can also be repressed through the formation of a complex with the tumor suppressor protein retinoblastoma (RB1) (FIG. 10B). […]

E2F1 [3] = assay: E2F1 levels by qPCR and western blot; details: HCT116, 6 h
Experimental: FIGS. 11A-11B show the effect of p97 inhibitors and MG132 on E2F1 expression in HCT116 cells. […] For both qPCR and western blot assays, HCT116 cells were treated for 6 h with DMSO, 1 μM of MG132 (MG), 2 μM of CB-5083 (CB) or 4 μM of NMS-873 (NMS), n=2, **** indicates p<0.0001, *** indicates p<0.001, * indicates p<0.05 according to unpaired t-test.
To determine if the decreased expression of E2F1 target genes was caused by the downregulation of E2F1 levels due to ER stress, qPCR and western blot were used to evaluate E2F1 levels. […] The transcriptional activity of E2F1 can also be repressed through the formation of a complex with the tumor suppressor protein retinoblastoma (RB1) (FIG. 10B). Hyperphosphorylation of RB1 by cyclin-D-cyclin-dependent kinase 4/6 complex (CCND1-CDK4/6) inactivates RB1 and induces the release of the E2F1 from the complex. The newly released E2F1 leads to transcriptional activation of target genes. […] This downregulation of CCND1 and CDK4 was further confirmed by western blot (FIG. 10D). […] Furthermore, the downregulation of CCND1 occurred after the upregulation of ATF3 (FIG. 10F). ATF3 is a stress-inducible gene, which binds to the cyclin D1 promoter and represses its transcription. Therefore, the upregulation of ATF3 potentially contribute to the downregulation of CCND1.

HCT116 cells [4] = assay: TMT labeling proteomics of HCT116 cells treated with MG132, CB-5083 or NMS-873; details: for Log2 FC Baculoviral IAP repeat-containing protein 5 (BIRC5) / Log2 FC Cell division cycle protein 20 homolog (CDC20) / Log2 FC F-box only protein 5 (FBXO5) / Log2 FC G1/S-specific cyclin-D1 (CCND1) / Log2 FC Geminin (GMNN) / Log2 FC M-phase inducer phosphatase 2 (CDC25B) / Log2 FC Mitotic checkpoint serine/threonine-protein kinase BUB1 (BUB1) / Log2 FC Myc proto-oncogene protein (MYC) / Log2 FC Origin recognition complex subunit 6 (ORC6) / Log2 FC Ribonucleoside-diphosphate reductase subunit M2 (RRM2) / Log2 FC Securin (PTTG1): compound vs DMSO
Experimental: HCT116 cells were treated with 1 μM MG132, 2 μM CB-5083 or 4 μM of NMS-874 for 6 h or 24 h, n=2. […] M, C and N represents MG132, CB-5083 and NMS-873, respectively.
As a step toward understanding the differential effects of inhibiting p97 and the proteasome in cancer treatment, the effect of inhibiting p97 was compared to proteasome inhibition using tandem mass tag (TMT) 16-plexed labelling. This technique allowed for capture of alterations in the proteome after exposure to MG132 (proteasome inhibitor) and p97 inhibitors (CB-5083 and NMS-873). […] Samples were pooled together, fractionated into 8 fractions using high pH reverse chromatography, and analyzed using the highly accurate RTS-SPS-MS3 method.

Question: Which “Cyclin D1 turnover in cytosol and nucleus” value (cyclin D1; HCT116, 50 μM CHX) does the source give for CC(C)C[C@@H](C=O)NC(=O)[C@H](CC(C)C)NC(=O)[C@H](CC(C)C)NC(=O)OCc1ccccc1 [MG132] (Cbz-Leu-Leu-Leu-aldehyde) here?
Answer: Its value is “blocked”.

Question: What about the “Effect on CB-5083 mediated cyclin D1 downregulation (co-treatment)” value (cyclin D1; HCT116, 6 hours, MG132 1 μM, CB-5083 2 μM, Baf A1 10 μM) of the same molecule?
Answer: The value was “rescued CB-5083 mediated cyclin D1 downregulation at the protein level but not at the mRNA level”.

Question: What about the “Distribution of cells in the G0/G1 phase” value (HCT116 cells [1]) of the same molecule?
Answer: The value was “reduced distribution in the G0/G1 phase”.

Question: And the “Transcriptional activity of E2F1” value (E2F1 [2])?
Answer: Its value is “reduce the transcriptional activity of E2F1”.

Question: And the “E2F1 RNA levels” value (E2F1 [3]; qPCR, 1 μM MG132, 2 μM CB-5083, 4 μM NMS-873)?
Answer: Its value is “strongly downregulated”.

Question: What about the “Protein level of E2F1” value (E2F1 [3]; western blot) of the same molecule?
Answer: The value was “increased”.

Question: And the “TAX1BP1 and p62 protein levels” value (HCT116 cells [4]; HCT116, 6 h and 24 h)?
Answer: The value was “upregulated”.

Question: And the “Log2 FC Baculoviral IAP repeat-containing protein 5 (BIRC5)” value (HCT116 cells [4]; HCT116, 6 h treatment)?
Answer: The value was 0.6.

Question: What about the “Log2 FC Cell division cycle protein 20 homolog (CDC20)” value (HCT116 cells [4]; HCT116, 6 h treatment) of the same molecule?
Answer: The value was 0.8.

Question: What about the “Log2 FC F-box only protein 5 (FBXO5)” value (HCT116 cells [4]; HCT116, 6 h treatment) of the same molecule?
Answer: The value was 0.2.

Question: What about the “Log2 FC G1/S-specific cyclin-D1 (CCND1)” value (HCT116 cells [4]; HCT116, 6 h treatment) of the same molecule?
Answer: Its value is 0.2.

Question: And the “Log2 FC Geminin (GMNN)” value (HCT116 cells [4]; HCT116, 6 h treatment)?
Answer: The value was 0.9.

Question: What about the “Log2 FC M-phase inducer phosphatase 2 (CDC25B)” value (HCT116 cells [4]; HCT116, 6 h treatment) of the same molecule?
Answer: Its value is 0.3.

Question: And the “Log2 FC Mitotic checkpoint serine/threonine-protein kinase BUB1 (BUB1)” value (HCT116 cells [4]; HCT116, 6 h treatment)?
Answer: The value was 1.2.

Question: And the “Log2 FC Myc proto-oncogene protein (MYC)” value (HCT116 cells [4]; HCT116, 6 h treatment)?
Answer: Its value is 1.2.

Question: What about the “Log2 FC Origin recognition complex subunit 6 (ORC6)” value (HCT116 cells [4]; HCT116, 6 h treatment) of the same molecule?
Answer: The value was 0.3.

Question: And the “Log2 FC Ribonucleoside-diphosphate reductase subunit M2 (RRM2)” value (HCT116 cells [4]; HCT116, 6 h treatment)?
Answer: The value was 0.6.

Question: What about the “Log2 FC Securin (PTTG1)” value (HCT116 cells [4]; HCT116, 6 h treatment) of the same molecule?
Answer: The value was 1.4.

Question: And the “Four XBP1 activated genes/proteins (DNAJB11, SRPR, SRPRB, SYVN1), Log2FC” value (HCT116 cells [4]; HCT116, 24 h of treatment, p<0.05)?
Answer: The value was “not”.

Question: And the “Log2 FC Baculoviral IAP repeat-containing protein 5 (BIRC5)” value (HCT116 cells [4]; HCT116, 24 h treatment)?
Answer: The value was 1.0.

Question: What about the “Log2 FC Cell division cycle protein 20 homolog (CDC20)” value (HCT116 cells [4]; HCT116, 24 h treatment) of the same molecule?
Answer: The value was 1.1.

Question: And the “Log2 FC F-box only protein 5 (FBXO5)” value (HCT116 cells [4]; HCT116, 24 h treatment)?
Answer: The value was 1.5.

Question: What about the “Log2 FC G1/S-specific cyclin-D1 (CCND1)” value (HCT116 cells [4]; HCT116, 24 h treatment) of the same molecule?
Answer: The value was 0.4.

Question: And the “Log2 FC Geminin (GMNN)” value (HCT116 cells [4]; HCT116, 24 h treatment)?
Answer: The value was 1.4.

Question: And the “Log2 FC M-phase inducer phosphatase 2 (CDC25B)” value (HCT116 cells [4]; HCT116, 24 h treatment)?
Answer: The value was −0.2.

Question: What about the “Log2 FC Mitotic checkpoint serine/threonine-protein kinase BUB1 (BUB1)” value (HCT116 cells [4]; HCT116, 24 h treatment) of the same molecule?
Answer: Its value is 1.4.

Question: What about the “Log2 FC Myc proto-oncogene protein (MYC)” value (HCT116 cells [4]; HCT116, 24 h treatment) of the same molecule?
Answer: The value was 0.2.

Question: What about the “Log2 FC Origin recognition complex subunit 6 (ORC6)” value (HCT116 cells [4]; HCT116, 24 h treatment) of the same molecule?
Answer: Its value is 1.0.

Question: What about the “Log2 FC Ribonucleoside-diphosphate reductase subunit M2 (RRM2)” value (HCT116 cells [4]; HCT116, 24 h treatment) of the same molecule?
Answer: Its value is 1.2.

Question: What about the “Log2 FC Securin (PTTG1)” value (HCT116 cells [4]; HCT116, 24 h treatment) of the same molecule?
Answer: The value was −0.1.

Question: What about the “CCND1 (cyclin D1) and CDK4/6 protein levels” value (HCT116 cells [4]; HCT116, proteomic analysis (TMT)) of the same molecule?
Answer: The value was “upregulated”.
